US20090105266A1, “Organic compounds” (priority 2007, published 2009)

molecular target: T1, mGluR5 (Homo sapiens, UniProt P41594); assay: inhibition of the glutamate (agonist) induced elevation of the inositol phosphate turnover; format: cell-based; conditions: inhibition of glutamate induced elevation of inositol phosphate turnover at 0.1 μM
T1 construct: expressed in transfected cells
Excerpt: This can be determined in vitro for example at recombinant human metabotropic glutamate receptors, especially PLC-coupled subtypes thereof such as mGluR5, using different procedures like, for example, measurement of the inhibition of the agonist induced elevation of intracellular Ca^2+ concentration in accordance with L. P. Daggett et al., Neuropharm. Vol. 34, pages 871-886 (1995), P. J. Flor et al., J. Neurochem. Vol. 67, pages 58-63 (1996) or by determination to what extent the agonist induced elevation of the inositol phosphate turnover is inhibited as described by T. Knoepfel et al., Eur. J. Pharmacol. Vol. 288, pages 389-392 (1994), L. P. Daggett et al., Neuropharm. Vol. 67, pages 58-63 (1996) and references cited therein. Isolation and expression of human mGluR subtypes are described in U.S. Pat. No. 5,521,297. Selected agents of the invention show IC50 values for the inhibition of the agonist (e.g. glutamate or quisqualate) induced elevation of intracellular Ca2+ concentration or the agonist (e.g. glutamate or quisqualate) induced inositol phosphate turnover, measured in recombinant cells expressing hmGluR^5a of about 0.1 nM to about 50 μM.
Activity of compounds of the present invention was examined by determination to what extent the agonist induced elevation of the inositol phosphate turnover is inhibited as described by T. Knoepfel et al., Eur. J. Pharmacol. Vol. 288, pages 389-392 (1994), L. P. Daggett et al., Neuropharm. Vol. 67, pages 58-63 (1996) and references cited therein.
The table below represents percentages of inhibition of the glutamate induced elevation of the inositol phosphate turnover at a concentration of 0.1 μM.

T1 sequence (P41594 21-1180 isoform P41594-2 limits assumed): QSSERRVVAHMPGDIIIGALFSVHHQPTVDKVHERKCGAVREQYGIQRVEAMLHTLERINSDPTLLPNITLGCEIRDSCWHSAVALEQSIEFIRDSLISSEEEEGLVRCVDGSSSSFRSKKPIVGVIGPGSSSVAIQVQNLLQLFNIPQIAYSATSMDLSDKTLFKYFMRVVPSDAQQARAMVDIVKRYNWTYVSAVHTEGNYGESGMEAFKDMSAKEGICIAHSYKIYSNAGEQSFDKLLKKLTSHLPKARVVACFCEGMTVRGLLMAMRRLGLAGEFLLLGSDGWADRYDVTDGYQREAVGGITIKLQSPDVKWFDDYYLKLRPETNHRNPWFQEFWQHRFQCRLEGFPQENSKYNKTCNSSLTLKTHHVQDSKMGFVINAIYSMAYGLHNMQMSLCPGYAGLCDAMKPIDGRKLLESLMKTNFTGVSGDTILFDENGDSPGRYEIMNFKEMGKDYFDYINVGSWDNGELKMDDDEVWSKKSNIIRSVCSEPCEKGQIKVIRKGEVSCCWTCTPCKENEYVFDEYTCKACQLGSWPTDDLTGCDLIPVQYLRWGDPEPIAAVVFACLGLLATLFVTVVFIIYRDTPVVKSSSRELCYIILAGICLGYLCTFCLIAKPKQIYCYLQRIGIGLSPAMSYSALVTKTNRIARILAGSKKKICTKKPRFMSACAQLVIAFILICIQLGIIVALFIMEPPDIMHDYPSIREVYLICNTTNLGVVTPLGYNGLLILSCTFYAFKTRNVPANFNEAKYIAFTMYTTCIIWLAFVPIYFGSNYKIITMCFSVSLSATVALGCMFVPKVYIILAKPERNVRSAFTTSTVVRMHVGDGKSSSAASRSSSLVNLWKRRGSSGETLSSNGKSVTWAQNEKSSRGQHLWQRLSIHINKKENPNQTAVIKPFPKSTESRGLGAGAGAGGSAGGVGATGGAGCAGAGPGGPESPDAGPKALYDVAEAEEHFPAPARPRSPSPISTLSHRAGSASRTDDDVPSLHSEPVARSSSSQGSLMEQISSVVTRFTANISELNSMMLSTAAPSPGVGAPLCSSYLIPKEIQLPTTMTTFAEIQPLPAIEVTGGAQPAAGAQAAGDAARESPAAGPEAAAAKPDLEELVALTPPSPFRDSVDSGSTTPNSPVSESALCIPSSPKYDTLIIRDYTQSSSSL

Row | SMILES | inhibition at 0.1 µM
1 | CCCn1c(-c2ccc(Nc3ccc(C)nc3)nc2)nc2ccc(F)cc21 [Example 105, [5-(6-Fluoro-1-propyl-1H-benzoimidazol-2-yl)-pyridin-2-yl]-(6-methyl-pyridin-3-yl)-amine] | 85%
2 | Cc1ccc(Nc2ccc(-c3nc4cccc(Cl)c4n3CC(C)C)cn2)cc1 [Example 108, [5-(7-Chloro-1-isobutyl-1H-benzoimidazol-2-yl)-pyridin-2-yl]-p-tolyl-amine] | 98%
3 | CC(C)Cn1c(-c2ccc(Nc3ccc(Cl)cc3)nc2)nc2cccc(Cl)c21 [Example 109, [5-(7-Chloro-1-isobutyl-1H-benzoimidazol-2-yl)-pyridin-2-yl]-(4-chloro-phenyl)-amine] | 91%
4 | Cc1ccc(Nc2ccc(-c3nc4cccc(Cl)c4n3CC(C)C)cn2)cn1 [Example 111, [5-(7-Chloro-1-isobutyl-1H-benzoimidazol-2-yl)-pyridin-2-yl]-(6-methyl-pyridin-3-yl)-amine] | 97%
5 | Cc1ccc(Nc2ncc(-c3nc4cccc(Cl)c4n3CC(C)C)cc2Cl)cn1 [Example 114c, [3-chloro-5-(7-chloro-1-isobutyl-1H-benzoimidazol-2-yl)-pyridin-2-yl]-(6-methyl-pyridin-3-yl)-amine] | 111%
6 | Cc1ccc(Nc2ccc(-c3nc4cccc(Cl)c4n3CC(C)C)cc2Cl)cn1 [Example 116, [2-Chloro-4-(7-Chloro-1-isobutyl-1H-benzoimidazol-2-yl)-phenyl]-(6-methyl-pyridin-3-yl)-amine] | 100%

Results, then the compound that gave them:

Row | inhibition at 0.1 µM | SMILES
7 | 84% | CCCn1c(-c2ccc(Nc3ccc(Cl)cc3)nc2)nc2ccc(F)cc21 [Example 104, (4-Chloro-phenyl)-[5-(6-fluoro-1-propyl-1H-benzoimidazol-2-yl)-pyridin-2-yl]-amine]
8 | 70% | CCCn1c(-c2ccc(Nc3ccc(C)cc3)nc2)nc2ccc(F)cc21 [Example 106, [5-(6-Fluoro-1-propyl-1H-benzoimidazol-2-yl)-pyridin-2-yl]-p-tolyl-amine]
9 | 64% | CCCn1c(-c2ccc(Nc3ccc(OC)cc3)nc2)nc2ccc(F)cc21 [Example 107, [5-(6-Fluoro-1-propyl-1H-benzoimidazol-2-yl)-pyridin-2-yl]-(4-methoxy-phenyl)-amine]
10 | 95% | COc1ccc(Nc2ccc(-c3nc4cccc(Cl)c4n3CC(C)C)cn2)cc1 [Example 110, [5-(7-Chloro-1-isobutyl-1H-benzoimidazol-2-yl)-pyridin-2-yl]-(4-methoxy-phenyl)-amine]
11 | 99% | CCCn1c(-c2cnc(Nc3ccc(OC)cc3)c(Cl)c2)nc2ccccc21 [Example 114, [3-Chloro-5-(1-propyl-1H-benzoimidazol-2-yl)-pyridin-2-yl]-(4-methoxy-phenyl)-amine]
12 | 100% | COc1ccc(Nc2ncc(-c3nc4cccc(Cl)c4n3CC(C)C)cc2Cl)cc1 [Example 114b, [3-chloro-5-(7-chloro-1-isobutyl-1H-benzoimidazol-2-yl)-pyridin-2-yl]-(4-methoxy-phenyl)-amine]
13 | 82% | CCCn1c(-c2ccc(Nc3ccc(OC)cc3)nc2)nc2cccc(F)c21 [Example 114d, [5-(7-fluoro-1-propyl-1H-benzoimidazol-2-yl)-pyridin-2-yl]-(4-methoxy-phenyl)-amine]
14 | 99% | CCCn1c(-c2ccc(Nc3ccc(C)nc3)c(Cl)c2)nc2ccc(F)cc21 [Example 115, [2-Chloro-4-(6-Fluoro-1-propyl-1H-benzoimidazol-2-yl)-phenyl]-(6-methyl-pyridin-3-yl)-amine]
